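The compound was tested at five concentrations on cells cultured in 96-well plates, with a 48-hour exposure period. Abbreviation: GI50, concentration required for 50% inhibition of growth.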 Calls of active or inactive are those of the source. No stated cut-off is given here; in the data, active = GI50 up to about 1.1 µM and inactive = higher.
Experiments:
Test in all cases: NCI anticancer screen, dose series, 48 h
[1] = tested on: 786-0
[2] = tested on: A498
[3] = tested on: A549
[4] = tested on: ACHN
[5] = tested on: CAKI-1
[6] = tested on: CCRF-CEM
[7] = tested on: COLO 205
[8] = tested on: DLD-1
[9] = tested on: DMS-114
[10] = tested on: DMS-273
[11] = tested on: EKVX
[12] = tested on: HCC 2998
[13] = tested on: HCT-116
[14] = tested on: HCT-15
[15] = tested on: HL-60
[16] = tested on: HOP-18
[17] = tested on: HOP-62
[18] = tested on: HOP-92
[19] = tested on: HT-29
[20] = tested on: IGROV-1
[21] = tested on: K562
[22] = tested on: KM-20L2
[23] = tested on: KM12
[24] = tested on: LOX IMVI
[25] = tested on: LXFL 529
[26] = tested on: M14
[27] = tested on: M19-MEL
[28] = tested on: MOLT-4
[29] = tested on: Malme-3M
[30] = tested on: NCI-H226
[31] = tested on: NCI-H23
[32] = tested on: NCI-H460
[33] = tested on: NCI-H522
[34] = tested on: OVCAR-3
[35] = tested on: OVCAR-4
[36] = tested on: OVCAR-5
[37] = tested on: OVCAR-8
[38] = tested on: RPMI-8226
[39] = tested on: RXF 393
[40] = tested on: SF-268
[41] = tested on: SF-295
[42] = tested on: SF-539
[43] = tested on: SK-MEL-28
[44] = tested on: SK-MEL-2
[45] = tested on: SK-MEL-5
[46] = tested on: SK-OV-3
[47] = tested on: SN12C
[48] = tested on: SNB-19
[49] = tested on: SNB-75
[50] = tested on: SNB-78
[51] = tested on: SR
[52] = tested on: SW-620
[53] = tested on: TK-10
[54] = tested on: U-251
[55] = tested on: UACC-257
[56] = tested on: UACC-62
[57] = tested on: UO-31
[58] = tested on: XF498
[59] = tested on: BT-549
[60] = tested on: DU-145
[61] = tested on: Hs-578T
[62] = tested on: MCF7
[63] = tested on: MDA-MB-231
[64] = tested on: MDA-MB-435
[65] = tested on: MDA-N
[66] = tested on: NCI/ADR-RES
[67] = tested on: PC-3
[68] = tested on: T47D

CC1=C(c2cc(C(=O)Nc3ccc(Cl)c(Cl)c3)nc(N)n2)Sc2ccccc2N1
GI50 [1]: > 100 µM (inactive)
GI50 [2]: > 100 µM (inactive)
GI50 [3]: > 100 µM (inactive)
GI50 [4]: > 100 µM (inactive)
GI50 [5]: > 100 µM (inactive)
GI50 [6]: > 100 µM (inactive)
GI50 [7]: > 100 µM (inactive)
GI50 [8]: > 100 µM (inactive)
GI50 [9]: > 100 µM (inactive)
GI50 [10]: > 100 µM (inactive)
GI50 [11]: 98.6 µM (inactive)
GI50 [12]: > 100 µM (inactive)
GI50 [13]: > 100 µM (inactive)
GI50 [14]: > 100 µM
GI50 [15]: > 100 µM (inactive)
GI50 [16]: > 100 µM (inactive)
GI50 [17]: > 100 µM (inactive)
GI50 [18]: > 100 µM (inactive)
GI50 [19]: > 100 µM (inactive)
GI50 [20]: > 100 µM (inactive)
GI50 [21]: 62.5 µM (inactive)
GI50 [22]: > 100 µM (inactive)
GI50 [23]: > 100 µM (inactive)
GI50 [24]: > 100 µM (inactive)
GI50 [25]: > 100 µM (inactive)
GI50 [26]: > 100 µM (inactive)
GI50 [27]: > 100 µM (inactive)
GI50 [28]: > 100 µM (inactive)
GI50 [29]: > 100 µM (inactive)
GI50 [30]: > 100 µM (inactive)
GI50 [31]: > 100 µM (inactive)
GI50 [32]: > 100 µM (inactive)
GI50 [33]: > 100 µM (inactive)
GI50 [34]: > 100 µM (inactive)
GI50 [35]: > 100 µM (inactive)
GI50 [36]: > 100 µM (inactive)
GI50 [37]: > 100 µM (inactive)
GI50 [38]: > 100 µM (inactive)
GI50 [39]: 89.7 µM (inactive)
GI50 [40]: > 100 µM (inactive)
GI50 [41]: > 100 µM (inactive)
GI50 [42]: > 100 µM (inactive)
GI50 [43]: > 100 µM (inactive)
GI50 [44]: > 100 µM (inactive)
GI50 [45]: > 100 µM (inactive)
GI50 [46]: > 100 µM (inactive)
GI50 [47]: > 100 µM (inactive)
GI50 [48]: > 100 µM (inactive)
GI50 [49]: > 100 µM (inactive)
GI50 [50]: > 100 µM (inactive)
GI50 [51]: > 100 µM (inactive)
GI50 [52]: > 100 µM (inactive)
GI50 [53]: > 100 µM (inactive)
GI50 [54]: > 100 µM (inactive)
GI50 [55]: > 100 µM (inactive)
GI50 [56]: > 100 µM (inactive)
GI50 [57]: > 100 µM (inactive)
GI50 [58]: > 100 µM (inactive)

Cc1cc(NC(=O)C(=O)Cc2nc3ccccc3s2)ccc1Cl
GI50 [1]: > 100 µM (inactive)
GI50 [2]: > 100 µM (inactive)
GI50 [3]: > 100 µM (inactive)
GI50 [4]: > 100 µM (inactive)
GI50 [59]: > 100 µM (inactive)
GI50 [5]: > 100 µM (inactive)
GI50 [6]: > 100 µM (inactive)
GI50 [7]: > 100 µM (inactive)
GI50 [8]: > 100 µM (inactive)
GI50 [9]: > 100 µM (inactive)
GI50 [10]: > 100 µM (inactive)
GI50 [60]: > 100 µM (inactive)
GI50 [11]: > 100 µM (inactive)
GI50 [12]: > 100 µM (inactive)
GI50 [13]: > 100 µM (inactive)
GI50 [14]: > 100 µM
GI50 [16]: 21.8 µM (inactive)
GI50 [17]: > 100 µM (inactive)
GI50 [18]: > 100 µM (inactive)
GI50 [19]: > 100 µM (inactive)
GI50 [61]: > 100 µM (inactive)
GI50 [20]: > 100 µM (inactive)
GI50 [21]: > 100 µM (inactive)
GI50 [22]: > 100 µM (inactive)
GI50 [23]: > 100 µM (inactive)
GI50 [24]: > 100 µM (inactive)
GI50 [25]: > 100 µM (inactive)
GI50 [26]: > 100 µM (inactive)
GI50 [27]: > 100 µM (inactive)
GI50 [62]: > 100 µM (inactive)
GI50 [63]: > 100 µM (inactive)
GI50 [64]: > 100 µM (inactive)
GI50 [65]: > 100 µM (inactive)
GI50 [28]: > 100 µM (inactive)
GI50 [29]: > 100 µM (inactive)
GI50 [30]: > 100 µM (inactive)
GI50 [31]: > 100 µM (inactive)
GI50 [32]: > 100 µM (inactive)
GI50 [33]: > 100 µM (inactive)
GI50 [66]: > 100 µM (inactive)
GI50 [34]: > 100 µM (inactive)
GI50 [35]: > 100 µM (inactive)
GI50 [36]: > 100 µM (inactive)
GI50 [37]: > 100 µM (inactive)
GI50 [67]: > 100 µM (inactive)
GI50 [38]: > 100 µM (inactive)
GI50 [39]: > 100 µM (inactive)
GI50 [40]: > 100 µM (inactive)
GI50 [41]: > 100 µM (inactive)
GI50 [42]: > 100 µM (inactive)
GI50 [43]: > 100 µM (inactive)
GI50 [44]: > 100 µM (inactive)
GI50 [45]: > 100 µM (inactive)
GI50 [46]: > 100 µM (inactive)
GI50 [47]: > 100 µM (inactive)
GI50 [48]: > 100 µM (inactive)
GI50 [49]: > 100 µM (inactive)
GI50 [50]: > 100 µM (inactive)
GI50 [51]: > 100 µM (inactive)
GI50 [52]: > 100 µM (inactive)
GI50 [68]: > 100 µM (inactive)
GI50 [53]: > 100 µM (inactive)
GI50 [54]: > 100 µM (inactive)
GI50 [55]: > 93.3 µM (inactive)
GI50 [56]: > 100 µM (inactive)
GI50 [57]: > 100 µM (inactive)
GI50 [58]: > 100 µM (inactive)

From ChEMBL document CHEMBL1201862, “PubChem BioAssay data set” (2004)
